{"source": "patent US20230292743A1", "about": "“Method for increasing the lifespan and motility of animal sperm using an inhibitor of Slo3 potassium channel” (IMV TECHNOLOGIES, priority 2017, published 2023)", "key": {"bovine sperm [1]": {"system": "bovine sperm", "test": "Ability of frozen-thawed bovine capacitated sperm to fertilize oocytes after 24 h incubation in sp-TALP (2-cell embryos, blastocysts)", "type": "cell-based", "settings": "0.2 μM clofilium in sp-TALP 24 h prior fertilization, vs control 24 h", "protocol": "Bovine sperm was obtained by ejaculation. Ejaculate was diluted 1:1 in Optixcell. After 10 minutes of 34° C. incubation, semen was then diluted to a final concentration of 57 million of spermatozoa/mL in Optixcell. Optixcell is a TRIS citrate buffer containing liposomes extruded from egg yolk lecithins, glycerol and antibiotics described by CEE (Directive 88/407/CEE). Diluted semen was slowly cooled down to 4° C. (3 to 4 h equilibration in a tempered water-bath), 0.25 mL straws were filled and then frozen in a controlled rate freezer at a cooling rate of 5° C./min from 4° C. to −10° C., 40° C./min from −10° C. to −110° C., 15° C./min from −110° C. to […]. Straws were then stored in liquid nitrogen until in vitro fertilization. Straws were thawed in a water-bath at 37° C. for 45 s. Each straw was wiped with 70° ethanol before being opened. […] Sperm concentration was measured and 750 000 sperm cells are injected into a fertilization droplet (500 μL) containing oocytes bathing in fertilization medium. […] Sperm (1.5 M/mL) and cumulus oocyte complexes (COCs) co-culture were performed at 38.5° C. under gaseous atmosphere of 5% v/v CO2 and saturated humidity for 48 h and then fertilization outcome was assessed. […] Cleavage rate assessed at 48 h and blastocyst rate at day 9 post-fertilization. […]"}, "bovine sperm [2]": {"system": "bovine sperm", "test": "In vitro fertilization with bovine sperm frozen with clofilium, washed or not washed after thawing", "type": "cell-based", "settings": "bovine sperm frozen with 0.2 μM clofilium, vs control", "protocol": "In order to be as close as possible of the possible field usage, sperm were frozen with clofilium prior to test their ability to improve fertilization. Two conditions were tested: in the first one, clofilium was present during the sperm incubation period, and in the second one, sperm was washed to remove clofilium in order to mimic the condition that may occur in the female reproductive tract. Straws containing clofilium were obtained as described below. Bovine ejaculate was split into two fractions, and diluted 1:1 in either Optixcell (Fraction 1) or Optixcell containing clofilium 0.2 μM (Fraction 2). After 10 minutes of 34° C. incubation, semen was then diluted to a final concentration of 57 million of spermatozoa/ml in Optixcell (Fraction 1) or Optixcell containing clofilium 0.2 μM (Fraction 2). Diluted semen was frozen as described above and stored in liquid nitrogen until in vitro fertilization. Two types of straws were used: control straws and straws containing clofilium. For straws containing clofilium, two conditions were tested: washed and not washed. The wash medium is a commonly used medium, sp-TALP, for bovine sperm handling and which composition is described above. For “not washed” conditions, sperm were incubated with sp-TALP containing 0.2 μM clofilium. […]"}}}
{"smiles": "CCCCCCC[N+](CC)(CC)CCCCc1ccc(Cl)cc1", "note": "[clofilium]", "values": [{"measurement": "percentage of blastocysts vs matured oocytes 9 days after fertilization", "setting": "bovine sperm [1]", "value": "improves the yield of bovine blastocysts"}, {"measurement": "percentage of 2-cell embryos vs matured oocytes at 24 h post fertilization", "setting": "bovine sperm [2]; not washed (clofilium present in sp-TALP), up to 48 h incubation", "value": "positive effect on embryo outcome lasted 48 hours"}, {"measurement": "percentage of 2-cell embryos vs matured oocytes at 24 h post fertilization", "setting": "bovine sperm [2]; washed clofilium, 24 h incubation in sp-TALP", "value": "positive effect at 24 hours is still present, although lower"}, {"measurement": "percentage of 2-cell embryos vs matured oocytes at 24 h post fertilization", "setting": "bovine sperm [2]; washed clofilium, 48 h incubation in sp-TALP", "value": "the effect is no longer present"}]}
